# According to patent US20110027771A1, “METHODS AND COMPOSITIONS FOR CELL STABILIZATION” (Artemis Health, Inc., priority 2009, published 2011):
# System: fetal cells
# Assay: Fetal cell number in blood drawn into sodium heparin or EDTA tubes, digital PCR
# Assay type: cell-based
# Details: composition containing heparin compared to composition containing EDTA; processed within 2 hrs after blood draw; FIG. 1
# Description: The number of fetal cells in solutions containing EDTA or heparin were compared (FIG. 1). Pre-procedural blood samples (10 ml per condition) were drawn into either sodium heparin tubes or EDTA tubes. Samples were processed within 2 hrs after blood draw. Briefly, whole blood samples were centrifuged to separate blood cells and plasma. Fetal gender was determined by digital PCR using plasma. Blood cell pellets were washed 5 times in PBS to remove cell-free DNA. DNA was then extracted from washed blood cells with a Qiagen column. The fetal cell number in samples with a male fetus was enumerated by digital PCR.
substance,measurement,value
heparin,fetal cell stability,higher stability
